Assay results taken from patent publication US20220162191A1, “SMALL MOLECULE MODULATORS OF IL-17” (LEO PHARMA A/S, priority 2019, published 2022).

These compounds were tested against T1, human IL-17AA (Homo sapiens, UniProt Q16552) (assay: IL-8 release assay in human epithelial keratinocytes adult (HEKa)). Details: 3 ng/ml human IL-17AA + 10 ng/ml human TNFalpha, 68-72 h, IL-8 by HTRF, read-out: Rel EC50 L-8 release assay.
T1 construct: host or cells: HEK (human embryonic kidney) cells
T1 sequence (Q16552 24-155) 1: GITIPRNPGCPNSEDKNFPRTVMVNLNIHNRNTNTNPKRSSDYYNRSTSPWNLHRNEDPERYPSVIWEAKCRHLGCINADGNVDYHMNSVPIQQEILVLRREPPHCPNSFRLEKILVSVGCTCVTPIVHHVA
T1 sequence (Q16552 24-155) 2: T1 sequence (Q16552 24-155) 1
Assay type: cell-based
How it was run: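 IL-8 secretion, quantified by HTRF (665/620 nm) as percent of controls, served as the readout after 68–72 h culture of HEKa cells with compound plus IL-17AA (3 ng/ml final) and TNF-alpha (10 ng/ml final). Four-parameter logistic curves gave relative IC50 and Emax.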

`Cc1n[nH]c(C)c1-c1ccc(NC(=O)[C@@H](NC(=O)C2(F)CC2)[C@@H]2CCCc3ccc(-c4ccnc(N5C[C@H]6C[C@@H]5CO6)c4)cc32)cc1` [Example 387, N-[(1S)-2-[4-(3,5-dimethyl-1H-pyrazol-4-yl)anilino]-1-[(1R)-7-[2-[(1R,4R)-2-oxa-5-azabicyclo[2.2.1]heptan-5-yl]-4-pyridyl]tetralin-1-yl]-2-oxo-ethyl]-1-fluoro-cyclopropanecarboxamide] and `Cc1n[nH]c(C)c1-c1ccc(NC(=O)[C@@H](NC(=O)c2ccnn2C)[C@@H]2CCCc3ccc(-c4cccc(CN5CCC5)c4)cc32)cc1` [Example 388, N-[(1S)-1-[(1R)-7-[3-(azetidin-1-ylmethyl)phenyl]tetralin-1-yl]-2-[4-(3,5-dimethyl-1H-pyrazol-4-yl)anilino]-2-oxo-ethyl]-2-methyl-pyrazole-3-carboxamide] cannot be ordered by EC50: less than 100 nM for the first, less than 100 nM for the second.

`Cc1ncn(C)c1-c1ccc(NC(=O)[C@@H](NC(=O)C2(F)CC2)[C@@H]2CCCc3ccc(-c4ccnc(N5C[C@H]6C[C@@H]5CN6)c4)cc32)cc1` [Example 389, N-[(1S)-1-[(1R)-7-[2-[(1R,4R)-2,5-diazabicyclo[2.2.1]heptan-2-yl]-4-pyridyl]tetralin-1-yl]-2-[4-(3,5-dimethylimidazol-4-yl)anilino]-2-oxo-ethyl]-1-fluoro-cyclopropanecarboxamide] and `Cc1n[nH]c(C)c1-c1ccc(NC(=O)[C@@H](NC(=O)C2(F)CC2)[C@@H]2CCCc3ccc(-c4ccc(CN5C[C@H]6C[C@@H]5CO6)cc4)cc32)cc1` [Example 390, N-[(1S)-2-[4-(3,5-dimethyl-1H-pyrazol-4-yl)anilino]-1-[(1R)-7-[4-[[(1R,4R)-2-oxa-5-azabicyclo[2.2.1]heptan-5-yl]methyl]phenyl]tetralin-1-yl]-2-oxo-ethyl]-1-fluoro-cyclopropanecarboxamide] fall in the same range of EC50: 100 to 1000 nM for the first, 100 to 1000 nM for the second.

First: Cc1n[nH]c(C)c1-c1ccc(NC(=O)[C@@H](NC(=O)C2(F)CC2)[C@@H]2CCCc3ccc(-c4cc(C)c(=O)n(C(C)C)c4)cc32)cc1 [Example 391, N-[(1S)-2-[4-(3,5-dimethyl-1H-pyrazol-4-yl)anilino]-1-[(1R)-7-(1-isopropyl-5-methyl-6-oxo-3-pyridyl)tetralin-1-yl]-2-oxo-ethyl]-1-fluoro-cyclopropanecarboxamide]
Second: Cc1cnn(C)c1-c1ccc(NC(=O)[C@@H](NC(=O)C2(F)CC2)[C@@H]2CCCc3ccc(-c4ccnc(N5C[C@@H]6C[C@H]5CN6)c4)cc32)cc1 [Example 392, N-[(1S)-1-[(1R)-7-[2-[(1S,4S)-2,5-diazabicyclo[2.2.1]heptan-2-yl]-4-pyridyl]tetralin-1-yl]-2-[4-(2,4-dimethylpyrazol-3-yl)anilino]-2-oxo-ethyl]-1-fluoro-cyclopropanecarboxamide]
The EC50 of the first is lower: less than 100 nM for the first, 100 to 1000 nM for the second.

First: Cc1n[nH]c(C)c1-c1ccc(NC(=O)[C@@H](NC(=O)C2(F)CC2)[C@@H]2CCCc3ccc(-c4cnn(C(F)F)c4)cc32)cc1 [Example 393, N-[(1S)-1-[(1R)-7-[1-(difluoromethyl)pyrazol-4-yl]tetralin-1-yl]-2-[4-(3,5-dimethyl-1H-pyrazol-4-yl)anilino]-2-oxo-ethyl]-1-fluoro-cyclopropanecarboxamide]
Second: Cc1n[nH]c(C)c1-c1ccc(NC(=O)[C@@H](NC(=O)c2ccnn2C)[C@@H]2CCCc3ccc(-c4ccnc(N5C[C@H]6C[C@@H]5CO6)c4)cc32)cc1 [Example 394, N-[(1S)-2-[4-(3,5-dimethyl-1H-pyrazol-4-yl)anilino]-1-[(1R)-7-[2-[(1R,4R)-2-oxa-5-azabicyclo[2.2.1]heptan-5-yl]-4-pyridyl]tetralin-1-yl]-2-oxo-ethyl]-2-methyl-pyrazole-3-carboxamide]
The EC50 of the first is higher: 100 to 1000 nM for the first, less than 100 nM for the second.

`Cc1n[nH]c(C)c1-c1ccc(NC(=O)[C@@H](NC(=O)C2(F)CC2)[C@@H]2CCCc3ccc(-c4cnn(C5CCOCC5)c4)cc32)cc1` [Example 396, N-[(1S)-2-[4-(3,5-dimethyl-1H-pyrazol-4-yl)anilino]-2-oxo-1-[(1R)-7-(1-tetrahydropyran-4-ylpyrazol-4-yl)tetralin-1-yl]ethyl]-1-fluoro-cyclopropanecarboxamide] and `Cc1n[nH]c(C)c1-c1ccc(NC(=O)[C@@H](NC(=O)C2(F)CC2)[C@@H]2CCCc3ccc(-c4cc(N5C[C@@H]6C[C@H]5CO6)ncn4)cc32)cc1` [Example 397, N-[(1S)-2-[4-(3,5-dimethyl-1H-pyrazol-4-yl)anilino]-1-[(1R)-7-[6-[(1S,4S)-2-oxa-5-azabicyclo[2.2.1]heptan-5-yl]pyrimidin-4-yl]tetralin-1-yl]-2-oxo-ethyl]-1-fluoro-cyclopropanecarboxamide] cannot be ordered by EC50: less than 100 nM for the first, less than 100 nM for the second.

`Cc1cnn(C)c1-c1ccc(NC(=O)[C@@H](NC(=O)C2(F)CC2)[C@@H]2CCCc3ccc(-c4ccnc(N5C[C@@H]6C[C@H]5CO6)c4)cc32)cc1` [Example 398, N-[(1S)-2-[4-(2,4-dimethylpyrazol-3-yl)anilino]-1-[(1R)-7-[2-[(1S,4S)-2-oxa-5-azabicyclo[2.2.1]heptan-5-yl]-4-pyridyl]tetralin-1-yl]-2-oxo-ethyl]-1-fluoro-cyclopropanecarboxamide] and `Cc1cnn(C)c1-c1ccc(NC(=O)[C@@H](NC(=O)C2(F)CC2)[C@@H]2CCCc3ccc(-c4ccnc(N5C[C@H]6C[C@@H]5CO6)c4)cc32)cc1` [Example 399, N-[(1S)-2-[4-(2,4-dimethylpyrazol-3-yl)anilino]-1-[(1R)-7-[2-[(1R,4R)-2-oxa-5-azabicyclo[2.2.1]heptan-5-yl]-4-pyridyl]tetralin-1-yl]-2-oxo-ethyl]-1-fluoro-cyclopropanecarboxamide] cannot be ordered by EC50: less than 100 nM for the first, less than 100 nM for the second.

`Cc1nccn1-c1ccc(NC(=O)[C@@H](NC(=O)C2(F)CC2)[C@@H]2CCCc3ccc(-c4ccnc(N5C[C@@H]6C[C@H]5CO6)c4)cc32)cc1` [Example 400, 1-fluoro-N-[(1S)-2-[4-(2-methylimidazol-1-yl)anilino]-1-[(1R)-7-[2-[(1S,4S)-2-oxa-5-azabicyclo[2.2.1]heptan-5-yl]-4-pyridyl]tetralin-1-yl]-2-oxo-ethyl]cyclopropanecarboxamide] and `Cc1nccn1-c1ccc(NC(=O)[C@@H](NC(=O)C2(F)CC2)[C@@H]2CCCc3ccc(-c4ccnc(N5C[C@H]6C[C@@H]5CO6)c4)cc32)cc1` [Example 401, 1-fluoro-N-[(1S)-2-[4-(2-methylimidazol-1-yl)anilino]-1-[(1R)-7-[2-[(1R,4R)-2-oxa-5-azabicyclo[2.2.1]heptan-5-yl]-4-pyridyl]tetralin-1-yl]-2-oxo-ethyl]cyclopropanecarboxamide] fall in the same range of EC50: 100 to 1000 nM for the first, 100 to 1000 nM for the second.

Compared with `Cc1nccn1-c1ccc(NC(=O)[C@@H](NC(=O)c2ccnn2C)[C@@H]2CCCc3ccc(-c4ccnc(N5C[C@@H]6C[C@H]5CO6)c4)cc32)cc1` [Example 402, 2-methyl-N-[(1S)-2-[4-(2-methylimidazol-1-yl)anilino]-1-[(1R)-7-[2-[(1S,4S)-2-oxa-5-azabicyclo[2.2.1]heptan-5-yl]-4-pyridyl]tetralin-1-yl]-2-oxo-ethyl]pyrazole-3-carboxamide], `Cc1nccn1-c1ccc(NC(=O)[C@@H](NC(=O)c2ccnn2C)[C@@H]2CCCc3ccc(-c4ccnc(N5C[C@H]6C[C@@H]5CO6)c4)cc32)cc1` [Example 403, 2-methyl-N-[(1S)-2-[4-(2-methylimidazol-1-yl)anilino]-1-[(1R)-7-[2-[(1R,4R)-2-oxa-5-azabicyclo[2.2.1]heptan-5-yl]-4-pyridyl]tetralin-1-yl]-2-oxo-ethyl]pyrazole-3-carboxamide] is higher in EC50: less than 100 nM for the first, 100 to 1000 nM for the second.

`Cn1cncc1-c1ccc(NC(=O)[C@@H](NC(=O)C2(F)CC2)[C@@H]2CCCc3ccc(-c4ccnc(N5C[C@H]6C[C@@H]5CO6)c4)cc32)cc1O` [Example 404, 1-fluoro-N-[(1S)-2-[3-hydroxy-4-(3-methylimidazol-4-yl)anilino]-1-[(1R)-7-[2-[(1R,4R)-2-oxa-5-azabicyclo[2.2.1]heptan-5-yl]-4-pyridyl]tetralin-1-yl]-2-oxo-ethyl]cyclopropanecarboxamide] and `Cn1cnnc1-c1ccc(NC(=O)[C@@H](NC(=O)C2(F)CC2)[C@@H]2CCCc3ccc(-c4ccnc(N5C[C@H]6C[C@@H]5CO6)c4)cc32)cc1` [Example 405, 1-fluoro-N-[(1S)-2-[4-(4-methyl-1,2,4-triazol-3-yl)anilino]-1-[(1R)-7-[2-[(1R,4R)-2-oxa-5-azabicyclo[2.2.1]heptan-5-yl]-4-pyridyl]tetralin-1-yl]-2-oxo-ethyl]cyclopropanecarboxamide] cannot be ordered by EC50: greater than 1000 nM for the first, greater than 1000 nM for the second.

`Cc1cc(-c2ccc3c(c2)[C@H]([C@H](NC(=O)C2(F)CC2)C(=O)Nc2ccc(-n4ccnc4C)cc2)CCC3)cn(C(C)C)c1=O` [Example 406, 1-fluoro-N-[(1S)-1-[(1R)-7-(1-isopropyl-5-methyl-6-oxo-3-pyridyl)tetralin-1-yl]-2-[4-(2-methylimidazol-1-yl)anilino]-2-oxo-ethyl]cyclopropanecarboxamide] and “N-[1-[[2-chloro-5-(1-(l-6-oxo-3- pyridyl)phenyl]methyl]-2-[4-(3-chloro- 1H-pyrazol-4-yl)anilino]-2-oxo-ethyl]-2- methyl-pyrazole-3-carboxamide [Example 180]” fall in the same range of EC50: 100 to 1000 nM for the first, 100 to 1000 nM for the second.

Compound “N-[(1S)-2-[6-chloro-3-(1-isopropyl- 6-oxo-3-pyridyl)cyclohexa-2,4-dien- 1-yl]-1-[[4-(3-methylimidazol-4- yl)phenyl]carbamoyl]propyl]-2- methyl-pyrazole-3-carboxamide [Example 54]” has an EC50 of 100 to 1000 nM.
